For one assay, the target named is BZP rat brain site. The assay is described as follows: PDSP binding at BZP rat brain site. The conditions noted are these: for Ki: N = 2, read-out: Binding Affinity BZR Secondary Screening Ki; for Ki / Binding Affinity BZR % Inhibition (Primary): rat brain; for Binding Affinity BZR % Inhibition (Primary): at 10,000 nM, N = 5; for BZP Rat Brain Site, PDSP raw data, mean: primary binding, 10,000 nM, last figure of the line = mean of the 4 before it. The protocol: The BZR binding affinity of the test compounds was also measured using rat brain BzR. […] The efficacy of imidazodiazepines on the benzodiazepine receptor depends on various factors, including the specific subtype of the receptor they bind to, their chemical structure, and the dose.
(§1) The NIMH PDSP assay protocol book [https://kidbdev.med.unc.edu/databases/PDSP%20Protocols%20II%202013-03-28.pdf accessed on 23 April 2023]. describes the protocols for primary and secondary radio-ligand binding assays. These assays were carried out in a final volume of 125 µL per well in the appropriate binding buffer.
(§2) The binding of a ligand to a receptor, ion channel, or transporter was determined in the […] of 10 µM of the appropriate reference compound. […] Plates were incubated in the dark for 90 min at rt, and the reactions were stopped by vacuum filtration onto 0.3% polyethyleneimine (PEI) soaked 96-well filter mats using a 96-well Filtermateharvester. This was followed by three washes with cold PBS buffer. Radioactivity was then counted on a Microbeta counter. Nonlinear regression was used to analyze the data with N = 6 replicates.

In another assay the target is T1, H3 (Homo sapiens, UniProt Q9Y5N1).
T1 construct: purchased NIMH Psychoactive Drug Screening Program (PDSP)
T1 sequence (Q9Y5N1 whole entry): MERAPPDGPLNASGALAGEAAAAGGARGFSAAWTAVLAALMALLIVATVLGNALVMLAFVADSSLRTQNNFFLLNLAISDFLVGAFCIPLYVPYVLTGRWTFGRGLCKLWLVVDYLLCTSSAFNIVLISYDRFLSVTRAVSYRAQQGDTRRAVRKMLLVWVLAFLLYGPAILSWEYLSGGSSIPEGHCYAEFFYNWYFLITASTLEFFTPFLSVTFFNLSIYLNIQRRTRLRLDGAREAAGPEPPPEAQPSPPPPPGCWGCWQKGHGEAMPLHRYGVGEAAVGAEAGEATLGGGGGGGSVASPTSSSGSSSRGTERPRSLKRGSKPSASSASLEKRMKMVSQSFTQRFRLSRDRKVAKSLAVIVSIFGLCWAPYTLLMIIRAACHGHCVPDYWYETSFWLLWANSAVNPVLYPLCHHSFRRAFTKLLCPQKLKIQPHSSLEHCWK
The assay is described as follows: PDSP primary binding H3. The conditions noted are these: primary binding, 10,000 nM; last figure of the line = mean of the 4 before it; read-out: H3, PDSP raw data, mean. The protocol:
(§3) To determine if any off-target receptor-binding effects are present, all the novel ligands were sent to the National Institute of Mental Health (NIMH), Psychoactive Drug Screening Program (PDSP). The ligands were screened over a panel of 47 receptors, ion channels, and transporters to determine any other possible interactions with […]. The hERG-binding was also determined. […] No binding of the test compounds to calcium channels was observed. […] It is necessary to screen the compounds for hERG-binding during the early process of drug discovery. The unintentional binding of many drugs to hERG can cause blockade of hERG K+ channels in the heart, which can cause many side effects including cardiac arrhythmias and sudden death. […] All of the α5 imidazodiazepines were tested for hERG-binding.
as §1, §2

The next assay deals with T2, Alpha2B (Homo sapiens, UniProt P18089).
T2 construct: purchased NIMH Psychoactive Drug Screening Program (PDSP)
T2 sequence (P18089 1-450): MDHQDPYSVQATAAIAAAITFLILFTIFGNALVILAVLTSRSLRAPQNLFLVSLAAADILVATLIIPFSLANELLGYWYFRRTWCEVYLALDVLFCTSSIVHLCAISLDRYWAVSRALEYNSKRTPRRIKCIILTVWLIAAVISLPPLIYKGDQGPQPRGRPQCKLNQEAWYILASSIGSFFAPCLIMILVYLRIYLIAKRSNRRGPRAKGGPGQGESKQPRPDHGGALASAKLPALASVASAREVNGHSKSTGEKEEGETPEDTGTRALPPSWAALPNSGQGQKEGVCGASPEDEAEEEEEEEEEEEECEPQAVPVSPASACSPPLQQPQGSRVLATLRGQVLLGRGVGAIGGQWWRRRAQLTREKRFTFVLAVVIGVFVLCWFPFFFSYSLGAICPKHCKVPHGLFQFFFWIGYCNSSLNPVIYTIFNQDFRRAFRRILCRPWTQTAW
The assay is described as follows: PDSP primary binding Alpha2B. The conditions noted are these: 1.5 h; primary binding, 10,000 nM; last figure of the line = mean of the 4 before it; read-out: Alpha2B, PDSP raw data, mean. The protocol: as §3, §1, §2

The target in another assay is T3, Alpha4Beta2 (Rattus norvegicus, UniProt P09483+P12390).
T3 construct: purchased NIMH Psychoactive Drug Screening Program (PDSP)
T3 sequence (P09483 31-630): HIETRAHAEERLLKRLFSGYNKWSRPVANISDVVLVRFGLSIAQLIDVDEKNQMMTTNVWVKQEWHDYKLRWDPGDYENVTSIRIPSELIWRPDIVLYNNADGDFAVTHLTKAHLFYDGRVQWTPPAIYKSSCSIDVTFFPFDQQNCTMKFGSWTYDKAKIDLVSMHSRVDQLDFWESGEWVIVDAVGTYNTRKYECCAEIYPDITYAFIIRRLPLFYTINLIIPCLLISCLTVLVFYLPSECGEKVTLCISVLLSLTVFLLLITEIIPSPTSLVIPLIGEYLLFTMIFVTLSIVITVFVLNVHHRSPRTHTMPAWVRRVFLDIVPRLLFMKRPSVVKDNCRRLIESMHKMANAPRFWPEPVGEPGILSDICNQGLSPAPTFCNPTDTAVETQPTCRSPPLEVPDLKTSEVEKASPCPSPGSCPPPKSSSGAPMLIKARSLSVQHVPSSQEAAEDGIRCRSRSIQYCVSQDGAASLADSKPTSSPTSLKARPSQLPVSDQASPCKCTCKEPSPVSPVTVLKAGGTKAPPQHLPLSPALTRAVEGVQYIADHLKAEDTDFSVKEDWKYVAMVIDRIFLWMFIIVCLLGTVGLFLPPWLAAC
T3 sequence (P12390 25-500): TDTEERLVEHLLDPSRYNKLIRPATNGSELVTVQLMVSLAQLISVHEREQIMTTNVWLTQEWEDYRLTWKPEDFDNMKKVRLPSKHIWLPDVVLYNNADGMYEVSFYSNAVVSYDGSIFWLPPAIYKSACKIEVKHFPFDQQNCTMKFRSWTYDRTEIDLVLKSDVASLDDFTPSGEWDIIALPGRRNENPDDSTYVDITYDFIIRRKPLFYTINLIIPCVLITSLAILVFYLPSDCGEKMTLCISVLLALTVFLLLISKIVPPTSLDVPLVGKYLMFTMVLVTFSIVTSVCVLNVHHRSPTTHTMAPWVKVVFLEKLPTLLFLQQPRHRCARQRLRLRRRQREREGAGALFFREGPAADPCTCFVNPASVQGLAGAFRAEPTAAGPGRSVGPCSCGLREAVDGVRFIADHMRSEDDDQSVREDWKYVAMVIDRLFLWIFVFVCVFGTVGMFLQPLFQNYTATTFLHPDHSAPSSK
The assay is described as follows: PDSP primary binding Alpha4Beta2. The conditions noted are these: primary binding, 10,000 nM; last figure of the line = mean of the 4 before it; read-out: Alpha4Beta2, PDSP raw data, mean. As to the method:
as §3, §1, §2

In a further assay the target is T4, Alpha2C (Homo sapiens, UniProt P18825).
T4 construct: purchased NIMH Psychoactive Drug Screening Program (PDSP)
T4 sequence (P18825 1-462): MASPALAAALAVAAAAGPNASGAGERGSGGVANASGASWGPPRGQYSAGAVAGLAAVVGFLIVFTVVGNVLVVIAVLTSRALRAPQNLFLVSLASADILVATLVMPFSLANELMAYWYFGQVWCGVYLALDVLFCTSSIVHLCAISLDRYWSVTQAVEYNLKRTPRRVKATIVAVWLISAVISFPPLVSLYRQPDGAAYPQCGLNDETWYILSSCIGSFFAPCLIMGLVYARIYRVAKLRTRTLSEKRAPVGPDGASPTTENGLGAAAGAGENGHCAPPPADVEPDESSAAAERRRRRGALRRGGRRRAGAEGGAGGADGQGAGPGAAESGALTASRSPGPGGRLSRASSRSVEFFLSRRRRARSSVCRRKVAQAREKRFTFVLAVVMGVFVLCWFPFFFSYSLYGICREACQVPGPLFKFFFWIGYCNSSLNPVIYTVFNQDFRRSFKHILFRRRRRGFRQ
Briefly: PDSP primary binding Alpha2C. The conditions noted are these: 1.5 h; primary binding, 10,000 nM; last figure of the line = mean of the 4 before it; read-out: Alpha2C, PDSP raw data, mean. The protocol: as §3, §1, §2

Another assay has as its target T5, H4 (Homo sapiens, UniProt Q9H3N8).
T5 construct: purchased NIMH Psychoactive Drug Screening Program (PDSP)
Briefly: PDSP primary binding H4. The conditions noted are these: primary binding, 10,000 nM; last figure of the line = mean of the 4 before it; read-out: H4, PDSP raw data, mean. The protocol:
as §3, §1, §2

In another assay the target is T6, 5-HT2C (Homo sapiens, UniProt P28335).
T6 construct: purchased NIMH Psychoactive Drug Screening Program (PDSP)
T6 sequence (P28335 33-458): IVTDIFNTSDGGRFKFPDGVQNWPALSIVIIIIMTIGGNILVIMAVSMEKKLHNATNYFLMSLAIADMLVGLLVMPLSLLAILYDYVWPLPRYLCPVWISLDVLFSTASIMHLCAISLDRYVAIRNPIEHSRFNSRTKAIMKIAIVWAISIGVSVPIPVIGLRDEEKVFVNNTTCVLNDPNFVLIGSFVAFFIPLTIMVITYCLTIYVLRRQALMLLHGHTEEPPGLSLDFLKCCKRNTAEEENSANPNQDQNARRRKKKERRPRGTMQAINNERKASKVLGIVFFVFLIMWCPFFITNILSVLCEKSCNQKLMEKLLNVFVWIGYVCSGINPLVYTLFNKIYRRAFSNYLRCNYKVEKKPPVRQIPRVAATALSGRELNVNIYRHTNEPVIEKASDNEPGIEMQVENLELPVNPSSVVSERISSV
The assay is described as follows: PDSP primary binding 5-HT2C. The conditions noted are these: 1.5 h; primary binding, 10,000 nM; last figure of the line = mean of the 4 before it; read-out: 5-HT2C, PDSP raw data, mean. As to the method: as §3, §1, §2

Another assay concerns the target T7, 5-HT2B (Homo sapiens, UniProt P41595).
T7 construct: purchased NIMH Psychoactive Drug Screening Program (PDSP)
The assay is described as follows: PDSP primary binding 5-HT2B. The conditions noted are these: 1.5 h; primary binding, 10,000 nM; last figure of the line = mean of the 4 before it; read-out: 5-HT2B, PDSP raw data, mean. As to the method: as §3, §1, §2

SMILES strings stand for the structures.

T5 sequence (Q9H3N8 whole entry): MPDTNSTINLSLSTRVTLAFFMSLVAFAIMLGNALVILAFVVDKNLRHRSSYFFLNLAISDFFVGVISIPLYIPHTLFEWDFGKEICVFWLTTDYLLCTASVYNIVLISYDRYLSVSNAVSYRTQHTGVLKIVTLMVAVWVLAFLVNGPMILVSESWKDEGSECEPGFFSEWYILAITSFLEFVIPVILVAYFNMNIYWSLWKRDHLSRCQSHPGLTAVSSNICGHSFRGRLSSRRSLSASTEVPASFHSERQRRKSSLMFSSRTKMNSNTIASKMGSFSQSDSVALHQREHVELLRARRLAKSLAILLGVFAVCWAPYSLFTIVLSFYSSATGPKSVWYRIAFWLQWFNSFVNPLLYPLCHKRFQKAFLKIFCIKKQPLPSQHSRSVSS
T7 sequence (P41595 whole entry): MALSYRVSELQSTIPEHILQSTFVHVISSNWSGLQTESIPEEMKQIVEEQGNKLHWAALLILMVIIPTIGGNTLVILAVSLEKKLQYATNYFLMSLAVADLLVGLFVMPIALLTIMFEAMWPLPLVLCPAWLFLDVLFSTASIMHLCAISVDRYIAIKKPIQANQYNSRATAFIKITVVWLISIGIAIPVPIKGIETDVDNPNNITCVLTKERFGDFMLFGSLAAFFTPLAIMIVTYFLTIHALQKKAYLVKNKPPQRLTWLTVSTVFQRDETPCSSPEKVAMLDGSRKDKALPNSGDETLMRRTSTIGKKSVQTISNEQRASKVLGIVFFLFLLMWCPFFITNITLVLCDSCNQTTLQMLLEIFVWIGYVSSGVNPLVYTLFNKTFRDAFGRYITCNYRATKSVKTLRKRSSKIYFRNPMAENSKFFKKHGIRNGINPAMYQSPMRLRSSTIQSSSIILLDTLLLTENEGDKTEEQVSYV

Consider `CCc1noc(-c2ncn3c2[C@@H](C)N=C(c2ccccc2F)c2cc(C4CC4)ccc2-3)n1` [Compound 46, (R)-5-(8-Cyclopropyl-6-(2′-fluorophenyl)-4-methyl-4H-benzo[f]imidazo[1,5-a][1,4]diazepin-3-yl)-3-ethyl-1,2,4-oxadiazole], for which, at BZP rat brain site, the inhibitory constant (Ki) was 3790 ± 632 nM. In addition, the “Binding Affinity BZR % Inhibition (Primary)” value with BZP rat brain site is recorded as 65.25 ± 5.33%. The inhibition at 10 µM on H3 was -6.39%; on Alpha2B, 44.2%; on Alpha4Beta2, 4.59%; on Alpha2C, 11.9%; on H4, 21.7%; on 5-HT2C, 3.53%. Moreover, the inhibition at 10 µM at 5-HT2B is 25.1%.
As to `C#Cc1ccc2c(c1)C(c1ccccc1Cl)=N[C@H](C)c1c(C(=O)N(C)CC)ncn1-2` [Compound 29], on BZP rat brain site, the Ki was 394 ± 40.2 nM. The “Binding Affinity BZR % Inhibition (Primary)” value in the assay on BZP rat brain site is reported as 87.49 ± 2.75%. In addition, the inhibition at 10 µM on H3 was -29.5%; at Alpha2B, 7.23%; on Alpha4Beta2, -1.16%; on Alpha2C, 19.9%; at H4, -21.5%; on 5-HT2C, -10.7%. Besides, the inhibition at 10 µM at 5-HT2B was 30%.
With `C#Cc1ccc2c(c1)C(c1ccccn1)=N[C@@H](C)c1c(C(=O)NC)ncn1-2` [Compound 23, (S)-8-Ethynyl-N,4-dimethyl-6-(pyridin-2′-yl)-4H-benzo[f]imidazo[1,5-a][1,4]diazepine-3-carboxamide], the inhibition constant (Ki) on BZP rat brain site is 1300 ± 394 nM. Moreover, in the assay on BZP rat brain site, the “Binding Affinity BZR % Inhibition (Primary)” value is recorded as 52.97 ± 6.26%. For the same compound, the inhibition at 10 µM was -12.8% on H3; 4.64% at Alpha2B; -4.27% at Alpha4Beta2; -0.12% on Alpha2C; -16.8% at H4; -10.1% on 5-HT2C. In addition, at 5-HT2B, the inhibition at 10 µM is -3.33%.
For `C#Cc1ccc2c(c1)C(c1ccccc1Cl)=N[C@H](C)c1c(C(=O)NC)ncn1-2` [Compound 21, (R)-6-(2′-Chlorophenyl)-8-ethynyl-N,4-dimethyl-4H-benzo[f]imidazo[1,5-a][1,4]diazepine-3-carboxamide], on BZP rat brain site, the Ki was 77.7 ± 2.93 nM. For the same compound, in the assay on BZP rat brain site, the “Binding Affinity BZR % Inhibition (Primary)” value turned out to be 94.96 ± 2.06%. The inhibition at 10 µM on H3 is 4.81%; at Alpha2B it was -2.45%; at Alpha4Beta2, 4.88%; on Alpha2C, -1.39%; at H4, -4.41%; at 5-HT2C it was -14.2%. For the same compound, at 5-HT2B, the inhibition at 10 µM is -5.07%.
Regarding `CCc1noc(-c2ncn3c2[C@@H](C)N=C(c2ccccc2F)c2cc(-c4ccccc4)ccc2-3)n1` [Compound 35, (R)-3-Ethyl-5-(6-(2′-fluorophenyl)-4-methyl-8-phenyl-4H-benzo[f]imidazo[1,5-a][1,4]diazepin-3-yl)-1,2,4-oxadiazole], in the assay with BZP rat brain site, the “Binding Affinity BZR % Inhibition (Primary)” value worked out at 19.91 ± 7.21%. In addition, the inhibition at 10 µM at H3 came to 4.89%; on Alpha2B, 45.7%; on Alpha4Beta2, 0.7%; at Alpha2C, 31.6%; at H4 it was 54.7%; at 5-HT2C, 19.7%. Besides, at 5-HT2B, the inhibition at 10 µM was determined as 13.8%.
On to `C#Cc1ccc2c(c1)C(c1ccccn1)=N[C@@H](C)c1c(C(=O)N(C)C)ncn1-2` [Compound 31, (S)-8-Ethynyl-N,N,4-trimethyl-6-(pyridin-2′-yl)-4H-benzo[f]imidazo[1,5-a][1,4]diazepine-3-carboxamide], for which, at BZP rat brain site, the Ki turned out to be 838 ± 107 nM. Moreover, the “Binding Affinity BZR % Inhibition (Primary)” value with BZP rat brain site is on record as 83.57 ± 1.57%. Also, the inhibition at 10 µM at H3 is -5.55%; at Alpha2B it was -0.93%; on Alpha4Beta2, -0.84%; at Alpha2C, 7.52%; on H4 it was -12.6%; at 5-HT2C, -12.3%. In addition, on 5-HT2B, the inhibition at 10 µM is -3.38%.
In the case of `C#Cc1ccc2c(c1)C(c1ccccc1F)=N[C@H](C)c1c(C(=S)N(C)C)ncn1-2` [Compound 33, (R)-8-Ethynyl-6-(2′-fluorophenyl)-N,N,4-trimethyl-4H-benzo[f]imidazo[1,5-a][1,4]diazepine-3-carbothioamide], the Ki at BZP rat brain site stood at 871 ± 8.72 nM. The “BZP Rat Brain Site, PDSP raw data, mean” value with BZP rat brain site is recorded as 94.79%. Besides, the inhibition at 10 µM on H3 is 5.94%; on Alpha2B, 68.9%; on Alpha4Beta2 it was -1.65%; at Alpha2C it was 12.9%; on H4 it was 0.9%; at 5-HT2C, 18%. Also, at 5-HT2B, the inhibition at 10 µM was determined as 26.5%.
Consider `C[C@H]1N=C(c2ccccc2F)c2cc(Cl)ccc2-n2cnc(-c3nc(C4CC4)no3)c21` [Compound 38, (R)-5-(8-Chloro-6-(2′-fluorophenyl)-4-methyl-4H-benzo[f]imidazo[1,5-a][1,4]diazepin-3-yl)-3-cyclopropyl-1,2,4-oxadiazole], for which the “BZP Rat Brain Site, PDSP raw data, mean” value in the assay with BZP rat brain site was found to be 88.28%. In addition, the inhibition at 10 µM on H3 is 3.21%; on Alpha2B, 17.6%; at Alpha4Beta2 it was 1.67%; at Alpha2C, 9.93%; on H4, 5.24%; at 5-HT2C, 7.18%. For the same compound, the inhibition at 10 µM at 5-HT2B was 10%.

For the origin of these results see publication PMC10303271, “Synthesis and Receptor Binding Studies of α5 GABAAR Selective Novel Imidazodiazepines Targeted for Psychiatric and Cognitive Disorders” (Molecules, 2023).
